Results from ChEMBL document CHEMBL5512638, “Novel pyrrole based CB2 agonists: New insights on CB2 receptor role in regulating neurotransmitters' tone” (Eur J Med Chem, 2024).
pEC50, pIC50, pKi: −log10 of the molar value.

What was measured:
[1] = target: T1, Cannabinoid receptor 1 (Homo sapiens, UniProt P21554); assay: Displacement of [3H]CP55940 from recombinant human CB1 receptor expressed in HEK293 cell membrane assessed as inhibition constant incubated for 90 mins by competition binding assay; format: cell membranes; settings: for pKi: read-out: Ki
[2] = target: T1, Cannabinoid receptor 1; assay: Displacement of [3H]CP55940 from recombinant human CB1 receptor expressed in HEK293 cell membrane incubated for 90 mins by competition binding assay; format: cell membranes; settings: for pIC50: read-out: IC50
[3] = target: T2, Cannabinoid receptor 2 (Homo sapiens, UniProt P34972); assay: Displacement of [3H]CP55940 from recombinant human CB2 receptor expressed in HEK293 cell membrane assessed as inhibition constant incubated for 90 mins by competition binding assay; format: cell membranes; settings: for pKi: read-out: Ki
[4] = target: T2, Cannabinoid receptor 2; assay: Displacement of [3H]CP55940 from recombinant human CB2 receptor expressed in HEK293 cell membrane incubated for 90 mins by competition binding assay; format: cell membranes; settings: for pIC50: read-out: IC50
[5] = tested on: Mus musculus; assay: Cognitive enhancing activity in scopolamine induced amnesia male C57/BL6J mouse model assessed as novel arm exploration time at 1 mg/kg, ip preadministered with compound for 10 mins followed by scopolamine administration for 30 mins and measured after 30 mins by Y-maze test (reference value: 9.28 +/- 1.03 sec); format: functional; settings: time 70 min, 1.167 h
[6] = tested on: Mus musculus; assay: Cognitive enhancing activity in scopolamine induced amnesia male C57/BL6J mouse model assessed as latency time to enter novel arm at 1 mg/kg, ip preadministered with compound for 10 mins followed by scopolamine administration for 30 mins and measured after 30 mins by Y-maze test (reference value: 21.93 +/- 0.78 sec); format: functional; settings: time 70 min, 1.167 h
[7] = species: Homo sapiens; assay: Selectivity ratio of Ki for displacement of [3H]CP55940 from recombinant human CB2 receptor expressed in HEK293 cell membrane to Ki for displacement of [3H]CP55940 from recombinant human CB1 receptor expressed in HEK293 cell membrane; format: cell membranes
[8] = Chemical stability of compound in phosphate buffer at pH 7.4 assessed as compound remaining at 5 uM measured after 0.5 hrs by UHPLC-MS analysis; format: physicochemical; settings: read-out: Stability
[9] = Chemical stability of compound in phosphate buffer at pH 7.4 assessed as compound remaining at 5 uM measured after 1.5 hrs by UHPLC-MS analysis; format: physicochemical; settings: read-out: Stability
[10] = target: T2, Cannabinoid receptor 2; assay: Partial agonist activity at human CB2 receptor expressed in CHO-K1 cells assessed as reduction in NKH-477 induced cAMP production by measuring maximal efficacy by chemiluminescence based cAMP hunter assay relative to control; format: functional, cell-based; settings: filed as partial agonist
[11] = Chemical stability of compound in phosphate buffer at pH 7.4 assessed as compound remaining at 5 uM measured after 2 hrs by UHPLC-MS analysis; format: physicochemical; settings: read-out: Stability
[12] = target: T2, Cannabinoid receptor 2; assay: Partial agonist activity at human CB2 receptor expressed in CHO-K1 cells assessed as reduction in NKH-477 induced cAMP production by chemiluminescence based cAMP hunter assay; format: functional, cell-based
[13] = Chemical stability of compound in phosphate buffer at pH 7.4 assessed as compound remaining at 5 uM measured after 1 hrs by UHPLC-MS analysis; format: physicochemical; settings: read-out: Stability
[14] = target: T2, Cannabinoid receptor 2; assay: Agonist activity at human CB2 receptor expressed in CHO-K1 cells assessed as reduction in NKH-477 induced cAMP production by chemiluminescence based cAMP hunter assay; format: functional, cell-based

T2 sequence (P34972 whole entry): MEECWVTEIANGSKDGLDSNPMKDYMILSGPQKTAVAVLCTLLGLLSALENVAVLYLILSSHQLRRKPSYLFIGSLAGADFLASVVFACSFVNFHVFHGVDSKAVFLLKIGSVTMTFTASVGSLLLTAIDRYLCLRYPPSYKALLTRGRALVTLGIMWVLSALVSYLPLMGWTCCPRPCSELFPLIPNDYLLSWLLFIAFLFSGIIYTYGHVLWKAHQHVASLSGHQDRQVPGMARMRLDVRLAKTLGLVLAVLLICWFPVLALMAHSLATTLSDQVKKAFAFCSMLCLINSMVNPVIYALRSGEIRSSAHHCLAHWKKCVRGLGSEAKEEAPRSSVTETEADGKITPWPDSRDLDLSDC
T1 sequence (P21554 whole entry): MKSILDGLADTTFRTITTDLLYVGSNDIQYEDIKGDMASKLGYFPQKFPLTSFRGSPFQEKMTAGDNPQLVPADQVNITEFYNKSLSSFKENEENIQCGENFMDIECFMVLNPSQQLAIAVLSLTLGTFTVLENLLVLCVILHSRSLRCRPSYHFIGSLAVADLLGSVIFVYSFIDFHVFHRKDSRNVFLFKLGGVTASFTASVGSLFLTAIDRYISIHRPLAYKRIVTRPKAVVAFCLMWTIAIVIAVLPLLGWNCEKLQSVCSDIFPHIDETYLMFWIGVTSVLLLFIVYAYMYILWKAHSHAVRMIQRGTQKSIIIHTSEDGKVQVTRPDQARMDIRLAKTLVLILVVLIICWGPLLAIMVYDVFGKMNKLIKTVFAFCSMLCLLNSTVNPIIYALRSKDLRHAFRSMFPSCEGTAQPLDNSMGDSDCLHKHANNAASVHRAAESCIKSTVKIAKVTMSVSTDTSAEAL

## O=C(NCc1ccc(O)cc1)c1cccn1Cc1ccc(F)cc1
[1]
  pKi: < 5.00
[2]
  pIC50: < 5.00
[3]
  pKi: < 5.00
[4]
  pIC50: < 5.00

## CC(=O)OCCn1cccc1C(=O)c1ccccc1Cl
[1]
  pKi: < 5.00
[2]
  pIC50: < 5.00
[3]
  pKi: < 5.00
[4]
  pIC50: < 5.00

## O=C(NCc1ccco1)c1cccn1Cc1ccc(-c2ccccc2)cc1
[1]
  pKi: < 5.00
[2]
  pIC50: < 5.00
[3]
  pKi: 6.64
[4]
  pIC50: 5.83

## Cc1c(C(=O)NN2CCCCC2)nn(-c2ccc(Cl)cc2Cl)c1-c1ccc(I)cc1
[5]
  Time: 28.6 s
[6]
  Time: 11.01 s

## Cc1ccc(NC(=O)c2cccn2Cc2ccc(F)cc2)cc1
[7]
  Ratio Ki: 5
[1]
  pKi: 5.99
[2]
  pIC50: 5.21
[3]
  pKi: 6.57
[4]
  pIC50: 5.88

## O=C(NCCO)[C@@H]1Cc2ccccc2CN1C(=O)c1ccc(O)cc1
[1]
  pKi: < 5.00
[2]
  pIC50: < 5.00
[3]
  pKi: < 5.00
[4]
  pIC50: < 5.00

## O=C(O)CC(=O)N[C@@H](Cc1c[nH]c2ccccc12)C(=O)Nc1ccc(O)cc1
[1]
  pKi: < 5.00
[2]
  pIC50: < 5.00
[3]
  pKi: < 5.00
[4]
  pIC50: < 5.00

## COc1ccc(C(=O)c2c(C)n(CCN3CCOCC3)c3cc(I)ccc23)cc1
[6]
  Time: 9.28 s

## O=C(NCc1cccc(O)c1)c1cccn1Cc1ccc(F)cc1
[1]
  pKi: < 5.00
[2]
  pIC50: < 5.00
[3]
  pKi: < 5.00
[4]
  pIC50: < 5.00

## CCOC(=O)CCCn1cccc1C(=O)c1ccccc1Cl
[1]
  pKi: < 5.00
[2]
  pIC50: < 5.00
[3]
  pKi: < 5.00
[4]
  pIC50: < 5.00

## O=C(CCO)N[C@@H](Cc1c[nH]c2ccccc12)C(=O)Nc1ccc(O)cc1
[1]
  pKi: < 5.00
[2]
  pIC50: < 5.00
[3]
  pKi: < 5.00
[4]
  pIC50: < 5.00

## CCCCCNC(=O)c1cccn1Cc1ccc(F)cc1
[1]
  pKi: < 5.00
[2]
  pIC50: < 5.00
[3]
  pKi: < 5.00
[4]
  pIC50: < 5.00

## O=C(Nc1cccc2ccccc12)c1cccn1Cc1ccc(F)cc1
[8]
  remaining at 0.5 h, 5 µM: 101%
[9]
  remaining at 1.5 h, 5 µM: 103%
[1]
  pKi: < 5.00
[2]
  pIC50: < 5.00
[3]
  pKi: 7.22
[10]
  Emax: 43.1%
[4]
  pIC50: 6.41
[11]
  remaining at 2 h, 5 µM: 99.2%
[12]
  pEC50: 5.21
[13]
  remaining at 1 h, 5 µM: 101%

## O=C(Nc1ccc(O)cc1)[C@@H]1Cc2ccccc2CN1C(=O)CCO
[1]
  pKi: < 5.00
[2]
  pIC50: < 5.00
[3]
  pKi: < 5.00
[4]
  pIC50: < 5.00

## Cc1ccc(CNC(=O)c2cccn2Cc2ccc(F)cc2)cc1
[1]
  pKi: < 5.00
[2]
  pIC50: < 5.00
[3]
  pKi: < 5.00
[4]
  pIC50: < 5.00

## Cc1ccc(C(=O)c2cccn2S(=O)(=O)c2ccc(C)cc2)cc1
[1]
  pKi: < 5.00
[2]
  pIC50: < 5.00
[3]
  pKi: < 5.00
[4]
  pIC50: < 5.00

## O=C(NCc1ccccc1)c1cccn1Cc1ccc(F)cc1
[1]
  pKi: < 5.00
[2]
  pIC50: < 5.00
[3]
  pKi: 6.15
[4]
  pIC50: 5.34

## O=C(c1ccccc1Cl)c1cccn1CCCCO
[1]
  pKi: < 5.00
[2]
  pIC50: < 5.00
[3]
  pKi: < 5.00
[4]
  pIC50: < 5.00

## O=C(c1ccccc1Cl)c1cccn1Cc1ccc(O)cc1
[1]
  pKi: < 5.00
[2]
  pIC50: < 5.00
[3]
  pKi: < 5.00
[4]
  pIC50: < 5.00

## CC(=O)Oc1cccc(Cn2cccc2C(=O)c2ccccc2Cl)c1
[1]
  pKi: < 5.00
[2]
  pIC50: < 5.00
[3]
  pKi: 5.81
[4]
  pIC50: 5.01

## O=C(c1ccccc1Cl)c1cccn1CC12CC3CC(CC(C3)C1)C2
[1]
  pKi: < 5.00
[2]
  pIC50: < 5.00
[3]
  pKi: 6.17
[4]
  pIC50: 5.37

## CCCCCn1cccc1C(=O)c1ccc(C)cc1
[1]
  pKi: < 5.00
[2]
  pIC50: < 5.00
[3]
  pKi: < 5.00
[4]
  pIC50: < 5.00

## O=C(O)CCCn1cccc1C(=O)c1ccccc1Cl
[1]
  pKi: < 5.00
[2]
  pIC50: < 5.00
[3]
  pKi: < 5.00
[4]
  pIC50: < 5.00

## COC(=O)CCCn1cccc1C(=O)c1ccccc1Cl
[1]
  pKi: < 5.00
[2]
  pIC50: < 5.00
[3]
  pKi: < 5.00
[4]
  pIC50: < 5.00

## Cc1ccc(S(=O)(=O)n2cccc2C(=O)c2ccc(Cl)cc2)cc1
[1]; hek293
  Ki: Not Determined(Insoluble)
[2]; hek293
  IC50: Not Determined(Insoluble)
[3]; hek293
  Ki: Not Determined(Insoluble)
[4]; hek293
  IC50: Not Determined(Insoluble)

## Cc1ccc(S(=O)(=O)n2cccc2C(=O)c2ccccc2)cc1
[1]
  pKi: < 5.00
[2]
  pIC50: < 5.00
[3]
  pKi: < 5.00
[4]
  pIC50: < 5.00

## CC(=O)OCCCCn1cccc1C(=O)NCc1ccccc1
[1]
  pKi: < 5.00
[2]
  pIC50: < 5.00
[3]
  pKi: < 5.00
[4]
  pIC50: < 5.00

## CC(=O)Oc1ccc(Cn2cccc2C(=O)c2ccccc2Cl)cc1
[1]
  pKi: < 5.00
[2]
  pIC50: < 5.00
[3]
  pKi: < 5.00
[4]
  pIC50: < 5.00

## O=C(CCO)N[C@@H](Cc1ccc(O)cc1)C(=O)Nc1ccc(O)cc1
[1]
  pKi: < 5.00
[2]
  pIC50: < 5.00
[3]
  pKi: < 5.00
[4]
  pIC50: < 5.00

## N=C(N)NCCCn1cccc1C(=O)c1ccccc1Cl
[1]
  pKi: < 5.00
[2]
  pIC50: < 5.00
[3]
  pKi: < 5.00
[4]
  pIC50: < 5.00

## Cc1ccc(Cn2cccc2C(=O)c2ccc(Cl)cc2)cc1
[1]
  pKi: < 5.00
[2]
  pIC50: < 5.00
[3]
  pKi: < 5.00
[4]
  pIC50: < 5.00

## CCCC(C)(C)c1ccc2c(c1)OC(C)(C)[C@@H]1CC=C(C)C[C@@H]21
[1]
  pKi: 6.55
[3]
  pKi: 8.30
[14]
  pEC50: 7.05

## O=C(c1ccc(Cl)cc1)c1cccn1Cc1ccco1
[1]
  pKi: < 5.00
[2]
  pIC50: < 5.00
[3]
  pKi: < 5.00
[4]
  pIC50: < 5.00

## Nc1ccc(CNC(=O)c2cccn2Cc2ccc(F)cc2)cc1
[1]
  pKi: < 5.00
[2]
  pIC50: < 5.00
[3]
  pKi: < 5.00
[4]
  pIC50: < 5.00

## O=C(c1ccccc1Cl)c1cccn1Cc1cccc(O)c1
[1]
  pKi: < 5.00
[2]
  pIC50: < 5.00
[3]
  pKi: < 5.00
[4]
  pIC50: < 5.00

## O=C(CO)Nc1cccc(NC(=O)c2cccnc2)c1
[1]
  pKi: < 5.00
[2]
  pIC50: < 5.00
[3]
  pKi: < 5.00
[4]
  pIC50: < 5.00

## Nc1cccc(C(=O)Nc2cccc(NC(=O)CO)c2)c1
[1]
  pKi: < 5.00
[2]
  pIC50: < 5.00
[3]
  pKi: < 5.00
[4]
  pIC50: < 5.00

## CC(=O)NCCCCn1cccc1C(=O)c1ccccc1Cl
[1]
  pKi: < 5.00
[2]
  pIC50: < 5.00
[3]
  pKi: < 5.00
[4]
  pIC50: < 5.00

## O=C(Nc1cccc(CO)c1)c1cccn1Cc1ccc(F)cc1
[1]
  pKi: < 5.00
[2]
  pIC50: < 5.00
[3]
  pKi: 6.60
[4]
  pIC50: 5.80

## O=C(OCCCCn1cccc1C(=O)c1ccccc1Cl)c1ccccc1
[1]
  pKi: < 5.00
[2]
  pIC50: < 5.00
[3]
  pKi: < 5.00
[4]
  pIC50: < 5.00

## O=C(NC12CC3CC(CC(C3)C1)C2)c1cccn1Cc1ccc(F)cc1
[8]
  remaining at 0.5 h, 5 µM: 98.6%
[9]
  remaining at 1.5 h, 5 µM: 99.2%
[1]
  pKi: < 5.00
[2]
  pIC50: < 5.00
[3]
  pKi: 8.00
[14]
  pEC50: 5.63
[4]
  pIC50: 7.15
[11]
  remaining at 2 h, 5 µM: 102%
[13]
  remaining at 1 h, 5 µM: 98.8%

## CC(=O)OCCCCn1cccc1C(=O)c1ccccc1Cl
[1]
  pKi: < 5.00
[2]
  pIC50: < 5.00
[3]
  pKi: 5.90
[4]
  pIC50: 5.10
